{
  "source": "paper PMC10368641",
  "about": "“Expulsion mechanism of the substrate-translocating subunit in ECF transporters” (Nature Communications, 2023)",
  "molecules": {"B1": {"name": "solitary ECF module (Lactobacillus delbrueckii subsp. bulgaricus ATCC 11842 = JCM 1002) (protein)", "chain 1": "SDNIISFDHVTFTYPDSPRPALSDLSFAIERGSWTALIGHNGSGKSTVSKLINGLLAPDDLDKSSITVDGVKLGADTVWEVREKVGIVFQNPDNQFVGATVSDDVAFGLENRAVPRPEMLKIVAQAVADVGMADYADSEPSNLSGGQKQRVAIAGILAVKPQVIILDESTSMLDPEGKEQILDLVRKIKEDNNLTVISITHDLEEAAGADQVLVLDDGQLLDQGKPEEIFPKVEMLKRIGLDIPFVYRLKQLLKERGIVLPDEIDDDEKLVQSLWQLNSKM", "chain 2": "MAIKFENVSYVYSPGSPLEAIGLDQLNFSLEEGKFIALVGHTGSGKSTLMQHFNALLKPTSGKIEIAGYTITPETGNKGLKDLRRKVSLAFQFSEAQLFENTVLKDVEYGPRNFGFSEDEAREAALKWLKKVGLKDDLIEHSPFDLSGGQMRRVALAGVLAYEPEIICLDEPAAGLDPMGRLEMMQLFKDYQAAGHTVILVTHNMDDVADYADDVLALEHGRLIKHASPKEVFKDSEWLQKHHLAEPRSARFAAKLEAAGLKLPGQPLTMPELADAIKQSLKGGEHE", "notes": "EcfA-EcfA'-EcfT without S-component, ~92 kDa; N-terminal His10-TEV tag removed; expressed in E. coli MC1061; MSP2N2 lipid nanodiscs; with Energy-coupling factor transporter transmembrane protein EcfT"}},
  "key": {"ECF-FolT2 [1]": {"target": "T1, ECF-FolT2 (Lactobacillus delbrueckii, UniProt Q1G929+Q1GBI9+Q1GBJ0)", "T1 construct": "gene ecfA1; full complex EcfA-EcfA'-EcfT-FolT2, ~115 kDa; N-terminal His10-TEV tag, C-terminal StrepII tag on FolT2; expressed in E. coli MC1061; MSP2N2 lipid nanodiscs; with Energy-coupling factor transporter transmembrane protein EcfT", "T1 sequence (Q1GBI8 entry or part of it, one chain of several, further chain)": "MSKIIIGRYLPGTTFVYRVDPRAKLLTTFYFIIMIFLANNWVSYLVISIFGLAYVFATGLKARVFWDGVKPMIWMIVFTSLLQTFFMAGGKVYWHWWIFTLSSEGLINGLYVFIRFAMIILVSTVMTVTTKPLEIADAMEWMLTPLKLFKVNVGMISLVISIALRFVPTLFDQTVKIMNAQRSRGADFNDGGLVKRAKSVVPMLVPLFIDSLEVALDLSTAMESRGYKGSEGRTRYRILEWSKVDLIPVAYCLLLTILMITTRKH", "T1 sequence (Q1G929 entry or part of it, one chain of several)": "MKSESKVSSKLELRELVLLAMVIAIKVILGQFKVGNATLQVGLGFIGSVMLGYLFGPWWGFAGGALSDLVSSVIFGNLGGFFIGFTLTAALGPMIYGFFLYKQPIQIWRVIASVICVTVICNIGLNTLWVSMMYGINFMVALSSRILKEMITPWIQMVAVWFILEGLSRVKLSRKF", "assay": "cryo-EM structure, […] Å", "type": "binding", "details": "5 mM Mg-AMP-PNP, 10 µM folate, 37 °C; both nucleotide sites; lipid nanodiscs"}, "[2]": {"target": "T2, solitary ECF module co-reconstituted with solitary FolT1 (Lactobacillus delbrueckii, UniProt Q1G930)", "T2 construct": "gene Ldb1624; FolT1 with N-terminal His8 tag from L. lactis NZ9000; ECF module from E. coli, tag removed by TEV; co-reconstituted into proteoliposomes; Energy-coupling factor transporter transmembrane protein EcfT", "T2 sequence (Q1GBI8 entry or part of it, one chain of several)": "as the sequence (Q1GBI8 entry or part of it, one chain of several, further chain) above", "T2 sequence (Q1GBJ0 whole entry, one chain of several, further chain)": "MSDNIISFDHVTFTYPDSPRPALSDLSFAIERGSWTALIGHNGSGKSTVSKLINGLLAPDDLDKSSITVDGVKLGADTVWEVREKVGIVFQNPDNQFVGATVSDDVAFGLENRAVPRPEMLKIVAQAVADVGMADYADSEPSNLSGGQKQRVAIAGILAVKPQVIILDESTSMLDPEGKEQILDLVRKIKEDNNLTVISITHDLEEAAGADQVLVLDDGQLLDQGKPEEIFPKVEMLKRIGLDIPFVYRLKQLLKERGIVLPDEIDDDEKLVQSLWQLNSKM", "T2 sequence (Q1G930 entry or part of it, one chain of several)": "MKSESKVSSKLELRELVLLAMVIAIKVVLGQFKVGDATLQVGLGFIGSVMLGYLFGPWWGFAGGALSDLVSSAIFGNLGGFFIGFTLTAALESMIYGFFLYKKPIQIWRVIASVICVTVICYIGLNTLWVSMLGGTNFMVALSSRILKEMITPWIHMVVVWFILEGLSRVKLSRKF", "assay": "radiolabelled folate uptake into proteoliposomes", "type": "biochemical", "details": "100 nM folate, 5 mM lumenal Mg-ATP, 50 mM KPi pH 7.5, 30 °C; labelled compound"}, "ECF-FolT2 [3]": {"target": "T1, ECF-FolT2", "assay": "cryo-EM structure, […] Å", "type": "binding", "details": "lipid nanodiscs"}, "solitary ECF module": {"target": "T3, solitary ECF module (Lactobacillus delbrueckii, UniProt Q1GBI9+Q1GBJ0)", "T3 construct": "gene ecfA1; EcfA-EcfA'-EcfT without S-component, ~92 kDa; N-terminal His10-TEV tag removed; expressed in E. coli MC1061; MSP2N2 lipid nanodiscs; with Energy-coupling factor transporter transmembrane protein EcfT", "T3 sequence (Q1GBI8 entry or part of it, one chain of several, further chain)": "as the sequence (Q1GBI8 entry or part of it, one chain of several, further chain) above", "assay": "cryo-EM structure, […] Å", "type": "binding", "details": "Mg-ATP in both nucleotide sites, closed ATPase dimer; lipid nanodiscs; catalytically inactive double mutant 2EQcryo"}, "[4]": {"substrate": "Nc1ncnc2c1ncn2[C@@H]1O[C@H](COP(=O)(O)OP(=O)(O)OP(=O)(O)O)[C@@H](O)[C@H]1O", "assay": "enzyme-coupled (PK/LDH) spectrophotometric ATPase assay", "type": "biochemical, Lactobacillus delbrueckii", "details": "Mg-ATP 0-0.5 mM, 20 mM Tris pH 8.0, 150 mM NaCl, 37 °C, lipid nanodiscs"}},
  "data": [
    {"molecule": "Nc1ncnc2c1ncn2[C@@H]1O[C@H](COP(=O)(O)OP(=O)(O)NP(=O)(O)O)[C@@H](O)[C@H]1O", "note": "[AMP-PNP]", "values": [
      {"measurement": "cryo-EM structure, 3.6 Å", "setting": "ECF-FolT2 [1]", "result": "with AMP-PNP bound to both nucleotide-binding sites"}
    ]},
    {"molecule": "Nc1nc2ncc(CNc3ccc(C(=O)N[C@@H](CCC(=O)O)C(=O)O)cc3)nc2c(=O)[nH]1", "note": "[folate]", "values": [
      {"measurement": "radiolabelled folate uptake into proteoliposomes", "setting": "[2]", "result": "Uptake of folate into the proteoliposome lumen only occurred in the presence of lumenal Mg-ATP"}
    ]},
    {"molecule": "Nc1ncnc2c1ncn2[C@@H]1O[C@H](COP(=O)(O)OP(=O)(O)O)[C@@H](O)[C@H]1O", "note": "[ADP]", "values": [
      {"measurement": "cryo-EM structure, 3.2 Å", "setting": "ECF-FolT2 [3]; 5 mM Mg-ATP added, site in EcfA'", "result": "ADP is bound exclusively by residues from the EcfA’ subunit"}
    ]},
    {"molecule": "Nc1ncnc2c1ncn2[C@@H]1O[C@H](COP(=O)(O)OP(=O)(O)OP(=O)(O)O)[C@@H](O)[C@H]1O", "note": "[ATP]", "values": [
      {"measurement": "cryo-EM structure, 3.2 Å", "setting": "ECF-FolT2 [3]; 5 mM Mg-ATP, 10 µM folate, 37 °C, site in EcfA, adenine between EcfA Phe13 and FolT2 Arg174", "result": "ATP and ADP bound to the EcfA and EcfA’ subunits, respectively"},
      {"measurement": "cryo-EM structure, 2.6 Å", "setting": "solitary ECF module", "result": "In both ATPase subunits, Mg-ATP is now bound and engaged with the signature motif"}
    ]},
    {"molecule": "B1", "values": [
      {"measurement": "Km", "setting": "[4]", "result": 136.2, "unit": "µM"}
    ]}
  ]
}
